Columns and labels:
Format in all cases: physicochemical
[1] = Solubility of solubilized capsule formulations in FeSSIF at 37° C.; settings: FeSSIF pH 5.0, 37° C.
[2] = Aqueous solubility of the active compound; settings: water; at about room temperature
[3] = Solubility of solubilized capsule formulations in SGF at 37° C.
[4] = Solubility of solubilized capsule formulations in FaSSIF at 37° C.; settings: FaSSIF pH 6.5, 37° C.

Compound: NC(=O)[C@@H](CCC(F)(F)F)N(Cc1ccc(-c2ncon2)cc1F)S(=O)(=O)c1ccc(Cl)cc1 [Active Compound, (2R)-2-[[(4-chlorophenyl)sulfonyl][[2-fluoro-4-(1,2,4-oxadiazol-3-yl)phenyl]methyl]amino]-5,5,5-trifluoropentanamide]
- ACTIVE COMPOUND Concentration ([1]; 5 Min.): 9.7 µg/mL
- ACTIVE COMPOUND Concentration ([1]; 15 Min.): 11.5 µg/mL
- ACTIVE COMPOUND Concentration ([1]; 30 Min.): 13.3 µg/mL
- ACTIVE COMPOUND Concentration ([1]; 60 Min.): 15.3 µg/mL
- solubility [2]: < 1 µg/mL
- ACTIVE COMPOUND Concentration ([3]; 5 Min.): 0.0 µg/mL
- ACTIVE COMPOUND Concentration ([3]; 15 Min.): 4.6 µg/mL
- ACTIVE COMPOUND Concentration ([3]; 24 Hr.): 1.0 µg/mL
- ACTIVE COMPOUND Concentration ([3]; 30 Min.): 1.6 µg/mL
- ACTIVE COMPOUND Concentration ([3]; 60 Min.): 1.0 µg/mL
- ACTIVE COMPOUND Concentration ([4]; 5 Min.): 2.5 µg/mL
- ACTIVE COMPOUND Concentration ([4]; 15 Min.): 3.8 µg/mL
- ACTIVE COMPOUND Concentration ([4]; 24 Hr.): 7.7 µg/mL
- ACTIVE COMPOUND Concentration ([4]; 30 Min.): 4.6 µg/mL
- ACTIVE COMPOUND Concentration ([4]; 60 Min.): 6.0 µg/mL
